Laboratory results reported in US10434101B2, “Heterocyclic compounds and uses thereof” (Celgene CAR LLC, priority 2010, dated 2019).
Like-named read-outs stand apart in the source and are kept apart here.

How the values were obtained:
[1] = test system: HCC827 cells (EGFR delE746-A750); assay: Cell proliferation (CellTiter Glo, 72 hr) in HCC827 cells; assay type: cell-based, human; settings: Homo sapiens, read-out: HCC827 GI50
Protocol: (§1) A431 human epidermoid carcinoma, H1975 human NSCLC and HCC827 human NSCLC adenocarcinoma cells were obtained from the American Type Culture Center (Manassas, Va.). A431 cells were grown in DMEM (Invitrogen, Carlsbad, Calif.) supplemented with 10% FBS (HyClone, South Logan, Utah) and 1% Penicillin-Streptomycin (P/S, Lonza, Walkersville, Md.).
(§2) Cells were plated in Growth Media supplemented with 5% FBS and 1% P/S at a density of 3,000 cells per well in 96 well tissue culture plates (Corning). […] Growth inhibition (GI50) values were determined by Graph Pad Prism.

[2] = test system: H1975 cells (EGFR L858R/T790M); assay: Cell proliferation (CellTiter Glo, 72 hr) in H1975 cells; assay type: cell-based, human; settings: Homo sapiens, read-out: H1975 GI50
Protocol: as §1, §2

A431 cells (WT EGFR) = assay: Cell proliferation (CellTiter Glo, 72 hr) in A431 cells; assay type: cell-based; settings: Homo sapiens
Protocol: as §1, §2

[3] = molecular target: EGFR double mutation L858R/T790M (H1975 cells) (Homo sapiens (Human), UniProt P00533, L858R/T790M); assay: Phospho-EGFR signaling (immunoblotting, 1 hr) in H1975 cells; assay type: cell-based; settings: signaling EC50 WT (A431) / H1975
Protocol: as §1
All primary antibodies were obtained from Cell Signaling (Danvers, Mass.) and used at 1:1000. Secondary antibodies were used at 1:10,000. Goat anti-mouse IgG IRDye 800CW antibody was obtained from LiCor Biosciences (Lincoln, Nebr.) and goat anti-rabbit IgG Alexa Fluor 680 was obtained from Invitrogen.
Cells were grown in 12-well plates (Corning, Coring, N.Y.) to 90% confluence and then incubated in low-serum (0.1% FBS) media for 16-18 hr. […] A431 cells were then stimulated with 50 ng/ml EGF (Peprotech, Rocky Hill, N.J.) for 15 min. After treatment, cell monolayers were washed with cold PBS (Invitrogen) and immediately lysed by scrapping into 60 uL cold Cell Extraction Buffer (Invitrogen) supplemented with Complete Protease inhibitors (Roche, Indianapolis, Ind.) and PhosphoSTOP (Roche) phosphatase inhibitors.
Phospho-protein signals were quantitated using Odyssey Infrared Imaging (Li-Cor Biosciences).
To assess phosphor-EGFR signaling, blots were probed with rabbit anti-Phospho-EGFR (Y1068) and mouse total anti-EGFR antibodies. Phospho-EGFR signal was normalized to total EGFR expression for each sample. […] Normalized data was fitted using a sigmoidal curve analysis program (Graph Pad Prism version 5) with variable Hill slope to determine the EC50 values.

[4] = A-431, A431 cells, 72 hr, read-out: WT EGFR GI50

Row | GI50 ([1]; HCC827 cells, 72 hr) [nM] | GI50 ([2]; NCI-H1975, H1975 cells, 72 hr) [nM] | GI50 (A431 cells (WT EGFR); [4]) [nM] | Ratio WT/mutant (H1975) [3] | GI50 (A431 cells (WT EGFR); A-431, read-out: Comparative GI50 Values, A431) [nM] | Structure (SMILES) | GI50 ([1]; HCC827, 72 h) [nM] | GI50 ([2]; NCI-H1975, 72 h) [nM] | GI50 (A431 cells (WT EGFR); A-431, 72 h, read-out: WT EGFR GI50) [nM]
1 | 10 to 100 | 10 to 100 | > 1000 | – | – | C=CC(=O)Nc1cccc(Nc2nc(Nc3ccc(N4CCN(C(=O)OC)CC4)cc3OC)ncc2C(F)(F)F)c1 [Compound I-29, methyl 4-(4-(4-(3-acrylamidophenylamino)-5-(trifluoromethyl)pyrimidin-2-ylamino)-3-methoxyphenyl)piperazine-1-carboxylate] | – | – | –
2 | > 1000 | > 1000 | > 1000 | – | – | C=CC(=O)Nc1cccc(Oc2nc(Nc3ccc(N4CCCN(C(=O)OC(C)(C)C)CC4)cc3OC)ncc2C(F)(F)F)c1 [Compound I-39, tert-butyl 4-(4-(4-(3-acrylamidophenoxy)-5-(trifluoromethyl)pyrimidin-2-ylamino)-3-methoxyphenyl)-1,4-diazepane-1-carboxylate] | – | – | –
3 | 500 to 1000 | 500 to 1000 | > 1000 | >5 | – | C=CC(=O)Nc1cccc(Nc2nc(Nc3ccc(N4CCCN(C(=O)OC(C)(C)C)CC4)cc3OC)ncc2C(F)(F)F)c1 [Compound I-44, tert-butyl 4-(4-(4-(3-acrylamidophenylamino)-5-(trifluoromethyl)pyrimidin-2-ylamino)-3-methoxyphenyl)-1,4-diazepane-1-carboxylate] | – | – | –
4 | 10 to 100 | 100 to 500 | > 1000 | >35 | – | C=CC(=O)Nc1cccc(Nc2nc(Nc3ccc(N4CCN(C(=O)C(C)(C)C)CC4)cc3OC)ncc2C(F)(F)F)c1 [Compound I-34, N-(3-(2-(2-methoxy-4-(4-pivaloylpiperazin-1-yl)phenylamino)-5-(trifluoromethyl)pyrimidin-4-ylamino)phenyl)acrylamide] | – | – | –
5 | 10 to 100 | 100 to 500 | 500 to 1000 | >1 | – | C=CC(=O)Nc1cccc(Nc2nc(Nc3ccc(N4CCN(C(C)=O)CC4)cc3OC)ncc2Br)c1 [Compound I-40, N-(3-(2-(4-(4-acetylpiperazin-1-yl)-2-methoxyphenylamino)-5-bromopyrimidin-4-ylamino)phenyl)acrylamide] | – | – | –
6 | 10 to 100 | > 1000 | > 1000 | >40 | – | C=CC(=O)Nc1cccc(Oc2nc(Nc3ccc(N4CCN(S(C)(=O)=O)CC4)cc3OC)ncc2Cl)c1 [Compound I-26, N-(3-(5-chloro-2-(2-methoxy-4-(4-(methylsulfonyl)piperazin-1-yl)phenylamino)pyrimidin-4-yloxy)phenyl)acrylamide] | – | – | –
7 | 10 to 100 | 500 to 1000 | > 1000 | – | – | C=CC(=O)Nc1cccc(Nc2nc(Nc3ccc(N4CCN(C(=O)NC)CC4)cc3OC)ncc2C(F)(F)F)c1 [Compound I-28, 4-(4-(4-(3-acrylamidophenylamino)-5-(trifluoromethyl)pyrimidin-2-ylamino)-3-methoxyphenyl)-N-methylpiperazine-1-carboxamide] | – | – | –
8 | 10 to 100 | 100 to 500 | > 1000 | >5 | – | C=CC(=O)Nc1cccc(Oc2nc(Nc3ccc(N4CCN(C(=O)CO)CC4)cc3OC)ncc2Cl)c1 [Compound I-3, N-(3-(5-chloro-2-(4-(4-(2-hydroxyacetyl)piperazin-1-yl)-2-methoxyphenylamino)pyrimidin-4-yloxy)phenyl)acrylamide] | – | – | –
9 | 10 to 100 | 100 to 500 | > 1000 | >1 | – | C=CC(=O)Nc1cccc(Nc2nc(Nc3ccc(N4CCN(S(C)(=O)=O)CC4)cc3OC)ncc2Cl)c1 [Compound I-41, N-(3-(5-chloro-2-(2-methoxy-4-(4-(methylsulfonyl)piperazin-1-yl)phenylamino)pyrimidin-4-ylamino)phenyl)acrylamide] | – | – | –
10 | 10 to 100 | 100 to 500 | > 1000 | – | – | C=CC(=O)Nc1cccc(Oc2nc(Nc3ccc(N4CCOCC4)cc3OC(F)F)ncc2Cl)c1 [Compound I-36, N-(3-(5-chloro-2-(2-(difluoromethoxy)-4-morpholinophenylamino)pyrimidin-4-yloxy)phenyl)acrylamide] | – | – | –
11 | 500 to 1000 | > 1000 | > 1000 | – | – | C=CC(=O)Nc1cccc(Nc2nc(Nc3ccc(N4CCCOCC4)cc3OC)ncc2C(F)(F)F)c1 [Compound I-38, N-(3-(2-(2-methoxy-4-(1,4-oxazepan-4-yl)phenylamino)-5-(trifluoromethyl)pyrimidin-4-ylamino)phenyl)acrylamide] | – | – | –
12 | 10 to 100 | 100 to 500 | > 1000 | – | – | C=CC(=O)Nc1cccc(Oc2nc(Nc3ccc(N4CCN(C(C)=O)CC4)cc3OC)ncc2Cl)c1 [Compound I-9, N-(3-(2-(4-(4-acetylpiperazin-1-yl)-2-methoxyphenylamino)-5-chloropyrimidin-4-yloxy)phenyl)acrylamide] | – | – | –
13 | 100 to 500 | 100 to 500 | > 1000 | – | – | C=CC(=O)Nc1cccc(Nc2nc(Nc3ccc(N4CCCN(C(=O)C(F)(F)F)CC4)cc3OC)ncc2C(F)(F)F)c1 [Compound I-19, N-(3-(2-(2-methoxy-4-(4-(2,2,2-trifluoroacetyl)-1,4-diazepan-1-yl)phenylamino)-5-(trifluoromethyl)pyrimidin-4-ylamino)phenyl)acrylamide] | – | – | –
14 | – | – | – | – | 4 | CCOc1cc2ncc(C#N)c(Nc3ccc(OCc4ccccn4)c(Cl)c3)c2cc1NC(=O)/C=C/CN(C)C [HKI-272, reference compound] | – | – | –
15 | – | – | – | – | – | C=CC(=O)Nc1cccc(Oc2nc(Nc3ccc(N4CCN(C(=O)OC)CC4)cc3OC)ncc2C(F)(F)F)c1 [Compound I-20, methyl 4-(4-(4-(3-acrylamidophenoxy)-5-(trifluoromethyl)pyrimidin-2-ylamino)-3-methoxyphenyl)piperazine-1-carboxylate] | 100 to 500 | 100 to 500 | > 1000
16 | 10 to 100 | 100 to 500 | > 1000 | – | – | C=CC(=O)Nc1cccc(Oc2nc(Nc3ccc(N4CCOCC4)cc3OC(F)F)ncc2C(F)(F)F)c1 [Compound I-13, N-(3-(2-(2-(difluoromethoxy)-4-morpholinophenylamino)-5-(trifluoromethyl)pyrimidin-4-yloxy)phenyl)acrylamide] | – | – | –
17 | 100 to 500 | 500 to 1000 | > 1000 | – | – | C=CC(=O)Nc1cccc(Oc2nc(Nc3ccc(N4CCN(C(=O)OC(C)(C)C)CC4)cc3OCC)ncc2Cl)c1 [Compound I-18, tert-butyl 4-(4-(4-(3-acrylamidophenoxy)-5-chloropyrimidin-2-ylamino)-3-ethoxyphenyl)piperazine-1-carboxylate] | – | – | –
18 | 100 to 500 | 500 to 1000 | > 1000 | – | – | C=CC(=O)Nc1cccc(Oc2nc(Nc3ccc(N4CCN(C(=O)CC(C)(C)C)CC4)cc3OC)ncc2Cl)c1 [Compound I-23, N-(3-(5-chloro-2-(4-(4-(3,3-dimethylbutanoyl)piperazin-1-yl)-2-methoxyphenylamino)pyrimidin-4-yloxy)phenyl)acrylamide] | – | – | –
19 | 10 to 100 | 100 to 500 | > 1000 | – | – | C=CC(=O)Nc1cccc(Oc2nc(Nc3ccc(N4CCN(S(N)(=O)=O)CC4)cc3OC)ncc2C(F)(F)F)c1 [Compound I-27, N-(3-(2-(2-methoxy-4-(4-sulfamoylpiperazin-1-yl)phenylamino)-5-(trifluoromethyl)pyrimidin-4-yloxy)phenyl)acrylamide] | – | – | –
20 | 100 to 500 | 500 to 1000 | > 1000 | – | – | C=CC(=O)Nc1cccc(Oc2nc(Nc3ccc(N4CCCOCC4)cc3OC)ncc2Cl)c1 [Compound I-37, N-(3-(5-chloro-2-(2-methoxy-4-(1,4-oxazepan-4-yl)phenylamino)pyrimidin-4-yloxy)phenyl)acrylamide] | – | – | –
21 | 10 to 100 | 10 to 100 | > 1000 | – | – | C=CC(=O)Nc1cccc(Nc2nc(Nc3ccc(N4CCN(C(=O)CC)CC4)cc3OC)ncc2C(F)(F)F)c1 [Compound I-35, N-(3-(2-(2-methoxy-4-(4-propionylpiperazin-1-yl)phenylamino)-5-(trifluoromethyl)pyrimidin-4-ylamino)phenyl)acrylamide] | – | – | –
22 | 10 to 100 | 100 to 500 | > 1000 | – | – | C=CC(=O)Nc1cccc(Nc2nc(Nc3ccc(N4CCN(C(=O)OC(C)(C)C)[C@H](C(=O)OC)C4)cc3OC)ncc2C(F)(F)F)c1 [Compound I-50, (S)-1-tert-butyl 2-methyl 4-(4-(4-(3-acrylamidophenylamino)-5-(trifluoromethyl)pyrimidin-2-ylamino)-3-methoxyphenyl)piperazine-1,2-dicarboxylate] | – | – | –
